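How tested: cells in 96-well plates exposed to compound for 48 hours at five concentrations. GI50 is the concentration that inhibits growth by half. At the TGI there is no net growth.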

In PubChem BioAssay (NCI) one finds TGI and GI50 data, which are given here for nine compounds.

Common to all, as to test: inhibition of tumour cell growth, NCI panel, 48 h
For experiment [1], the system named is UACC-62 melanoma.
For experiment [2], the system named is NCI-H23 lung.
The test system of experiment [3] is K-562 leukemia.
Experiment [4] has as its system SF-539 CNS.
The subject of experiment [5] is ACHN renal.
Experiment [6] concerns SF-268 CNS.
Experiment [7] concerns CCRF-CEM leukemia.
The test system of experiment [8] is KM12 colon.
Experiment [9] relates to U251 CNS.
Experiment [10] relates to RXF 393 renal.

With `COC(=O)C1(F)C(=O)NC(=O)NC1O` (stereo not given), the TGI in experiment [1], in experiment [2], in experiment [3], in experiment [4], in experiment [5] and in [6] was greater than 100 µM throughout. Also, the TGI in experiment [7], in experiment [8], in experiment [9] and in [10] was greater than 100 µM throughout.
With `Cc1cc(Cc2cc(C)cc(C(C)(C)C)c2O)c(O)c(C(C)(C)C)c1`, the GI50 in experiment [1] is 10.4 µM; in [2] it was 4.23 µM; in experiment [3], 3.95 µM; in experiment [4], 13.3 µM; in experiment [5], 4.59 µM; in experiment [6], 5.06 µM. The GI50 is 9.98 µM in experiment [7], 3.79 µM in experiment [8], 5.74 µM in [9] and 6.37 µM in experiment [10]. In addition, the TGI in [1] was determined as 22.2 µM; in experiment [2], 16.3 µM; in experiment [3], 19.8 µM; in [4], 26 µM; in experiment [5], 15.4 µM; in experiment [6] it was 17.3 µM. In addition, the TGI was greater than 100 µM in experiment [7], 13.6 µM in experiment [8], 17.5 µM in [9] and 18.9 µM in experiment [10].
For `O=C1Nc2cc([N+](=O)[O-])ccc2NC1/C(=N\Nc1ccccc1)C(O)c1cccc([N+](=O)[O-])c1` (stereo not given), the TGI in experiment [1], in experiment [2], in [3], in [4], in experiment [5] and in [6] was greater than 100 µM in each case. Further, the TGI in experiment [7], in [8], in [9] and in [10] was greater than 100 µM in each case.
In the case of `COc1ccc(Cl)cc1NC(=O)C(Br)C(Br)C(=O)O` (stereo not given), the GI50 was 2.81 µM in experiment [1]; 11.9 µM in experiment [2]; 1.46 µM in experiment [3]; 11.5 µM in [4]; 17.2 µM in experiment [5]; 4.33 µM in [6]. Further, the GI50 in experiment [7] is 2.9 µM; in [8] it was 16.3 µM; in experiment [9], 6.62 µM; in experiment [10] it was 18.8 µM. Further, the TGI is 8.93 µM in [1]; 47.8 µM in experiment [2]; greater than 100 µM in experiment [3]; 25.4 µM in [4]; greater than 80.5 µM in experiment [5]; 16.8 µM in [6]. For the same compound, the TGI was greater than 100 µM in experiment [7], 39.2 µM in [8], 20.9 µM in [9] and 40.9 µM in [10].
`Cc1c2c[n+](C(C)C)ccc2c(C)c2c1[nH]c1ccccc12`: the GI50 in experiment [1] is 2.7 µM; in experiment [2] it was 1.75 µM; in [3], 2.72 µM; in [4], 1.62 µM; in experiment [5], 22.6 µM; in experiment [6] it was 0.475 µM. The GI50 was 3.97 µM in experiment [7], 1.14 µM in experiment [8], 0.456 µM in experiment [9] and 6.19 µM in experiment [10]. The TGI in experiment [1] is 15 µM; in experiment [2], 15.7 µM; in experiment [3], 29 µM; in experiment [4] it was 16.4 µM; in [5] it was greater than 100 µM; in experiment [6], 14.9 µM. The TGI in [7] is 38.7 µM; in experiment [8], 10.9 µM; in [9] it was 15.2 µM; in experiment [10], greater than 100 µM.
For the compound `CC(C)NC(=O)OCc1c(COC(=O)NC(C)C)c(-c2ccc(Cl)cc2)n2c1CCC2`, the GI50 was 2.08 µM in experiment [1]; 2.15 µM in [2]; 2.65 µM in [3]; 2.53 µM in experiment [4]; 1.34 µM in experiment [5]; 2.25 µM in experiment [6]. Further, the GI50 in experiment [7] was 1.04 µM; in [8] it was 11 µM; in experiment [9], 2.88 µM; in experiment [10], 1.85 µM. In addition, the TGI in experiment [1] was 7.56 µM; in experiment [2], 12.5 µM; in experiment [3], greater than 26.1 µM; in experiment [4], 9.72 µM; in experiment [5] it was 9.19 µM; in experiment [6], 13.5 µM. Moreover, the TGI in experiment [7] was greater than 33.4 µM; in experiment [8], 25.9 µM; in experiment [9], 35.2 µM; in experiment [10], 4.32 µM.
In the case of `O=C1c2c(nc3ccccc3c2-c2ccccc2)CN1Nc1ccccn1`, the TGI in experiment [1] is greater than 100 µM; in experiment [2], greater than 100 µM; in experiment [3], greater than 100 µM; in experiment [4] it was 99.5 µM; in [5] it was greater than 100 µM; in [6], greater than 100 µM. In addition, the TGI in [7], in [8], in experiment [9] and in experiment [10] was greater than 100 µM throughout.
For the compound `C1OC1CO[C@@H]1CO[C@H]2[C@@H]1OC[C@H]2OCC1CO1` (stereo not given in full), the TGI in experiment [1], in experiment [2], in experiment [3], in [4], in experiment [5] and in experiment [6] was greater than 100 µM throughout. The TGI in experiment [7], in [8], in experiment [9] and in [10] was greater than 100 µM in each case.
`O=C(O)c1ccc(N/C=C2\C(=O)c3ccccc3OC2O)cc1O` (stereo not given): the GI50 in experiment [1] is 17.4 µg/mL; in experiment [2], 19 µg/mL; in experiment [3], 16 µg/mL; in experiment [4], 16.5 µg/mL; in experiment [5], 29 µg/mL; in [6], 21.8 µg/mL. Also, the GI50 in [7] is 13.8 µg/mL; in experiment [8] it was 23.4 µg/mL; in experiment [9], 17.2 µg/mL; in [10] it was 12.6 µg/mL. Moreover, the TGI in experiment [1] was found to be 52.4 µg/mL; in experiment [2], 58.4 µg/mL; in [3], 87.2 µg/mL; in [4] it was 39.1 µg/mL; in experiment [5] it was 84.6 µg/mL; in experiment [6], 134 µg/mL. Also, the TGI in experiment [7] is 59.6 µg/mL; in experiment [8] it was 48.5 µg/mL; in experiment [9] it was 45.1 µg/mL; in experiment [10], 34.5 µg/mL.
